# Assay results from patent US20260151516A1, “NEW PET TRACER FOR IMAGING OF THE FUNCTIONAL HEPATIC RESERVE” (Medizinische Universität Innsbruck, priority 2022, published 2026).
# What was measured:
# [1] = Biodistribution studies incl. blocking experiments; format: in vivo; conditions: healthy BALB/c mice
# Method: For biodistribution studies 6 week old female BALB/c mice (n=3) were injected with 0.1 nmol (100 μL, approx. 1 MBq) of labelled compound via the lateral tail vein and sacrificed after 10, 30, or 60 min by cervical dislocation. The mice were dissected, blood and organs (spleen, pancreas, stomach, intestine, liver, kidney, heart, lung, muscle, and bone) were weighed, and their activity measured in a γ-counter. For blocking experiments, mice were co-injected with 100 μL of a 277 mM Galactose/PBS solution. In case of [^68Ga]Ga-TRAP-GalNAc a 277 mM N-Acetylgalactose solution was used.
# [2] = Partition coefficient (log D), n-Octanol/PBS; format: physicochemical
# Method: The vials were vortexed for 5 min at 1,500 rpm and then centrifuged for 5 min at 20,000 rcf (Eppendorf Centrifuge 5424).
# [3] = 30 min p.i., blocking with 277 mM galactose
structure (smiles),measurement,setting,value
O=C(CCP(=O)(O)CN1CCN(CP(=O)(O)CCC(=O)NCc2cn([C@@H]3O[C@H](CO)[C@H](O)[C@H](O)[C@H]3O)nn2)CCN(CP(=O)(O)CCC(=O)NCc2cn([C@@H]3O[C@H](CO)[C@H](O)[C@H](O)[C@H]3O)nn2)CC1)NCc1cn(C2O[C@H](CO)[C@H](O)[C@H](O)[C@H]2O)nn1 (stereo partly drawn) [Galacto-TRAP],Biodistribution Liver,[1]; [3],3.24±0.2 % ID/g
O=C(CCP(=O)([O-])CN1CCN(CP(=O)([O-])CCC(=O)NCc2cn([C@@H]3O[C@H](CO)[C@H](O)[C@H](O)[C@H]3O)nn2)CCN(CP(=O)([O-])CCC(=O)NCc2cn([C@@H]3O[C@H](CO)[C@H](O)[C@H](O)[C@H]3O)nn2)CC1)NCc1cn([C@@H]2O[C@H](CO)[C@H](O)[C@H](O)[C@H]2O)nn1.[68Ga+3] [[^68Ga]Ga-Galacto-TRAP],logD,[2],−4.16±0.09
same,Biodistribution Femur,[1]; 10 min p.i.,1.11 ± 0.18 % ID/g
same,Biodistribution Heart,[1]; 10 min p.i.,6.08 ± 0.51 % ID/g
same,Biodistribution Intestine,[1]; 10 min p.i.,1.80 ± 0.16 % ID/g
same,Biodistribution Liver,[1]; 10 min p.i.,12.2 ± 1.4 % ID/g
same,Biodistribution Lung,[1]; 10 min p.i.,1.97 ± 0.07 % ID/g
same,Biodistribution Muscle,[1]; 10 min p.i.,3.25 ± 0.27 % ID/g
same,Biodistribution Pancreas,[1]; 10 min p.i.,1.20 ± 0.03 % ID/g
same,Biodistribution Spleen,[1]; 10 min p.i.,5.58 ± 0.17 % ID/g
same,Biodistribution Stomach,[1]; 10 min p.i.,1.17 ± 0.05 % ID/g
same,Biodistribution Blood,[1]; 30 min p.i.,0.47 ± 0.16 % ID/g
same,Biodistribution Femur,[1]; 30 min p.i.,0.44 ± 0.01 % ID/g
same,Biodistribution Heart,[1]; 30 min p.i.,5.44 ± 0.75 % ID/g
same,Biodistribution Intestine,[1]; 30 min p.i.,0.79 ± 0.15 % ID/g
same,Biodistribution Kidneys,[1]; 30 min p.i.,0.88 ± 0.07 % ID/g
same,Biodistribution Liver,[1]; 30 min p.i.,5.02 ± 1.08 % ID/g
same,Biodistribution Lung,[1]; 30 min p.i.,0.75 ± 0.16 % ID/g
same,Biodistribution Pancreas,[1]; 30 min p.i.,0.49 ± 0.07 % ID/g
same,Biodistribution Spleen,[1]; 30 min p.i.,2.17 ± 0.54 % ID/g
same,Biodistribution Stomach,[1]; 30 min p.i.,0.53 ± 0.05 % ID/g
same,Biodistribution Blood,[1]; [3],0.43 ± 0.14 % ID/g
same,Biodistribution Femur,[1]; [3],0.38 ± 0.06 % ID/g
same,Biodistribution Heart,[1]; [3],3.24 ± 0.19 % ID/g
same,Biodistribution Intestine,[1]; [3],0.67 ± 0.15 % ID/g
same,Biodistribution Kidneys,[1]; [3],0.75 ± 0.11 % ID/g
same,Biodistribution Liver,[1]; [3],5.10 ± 0.72 % ID/g
same,Biodistribution Lung,[1]; [3],0.68 ± 0.08 % ID/g
same,Biodistribution Muscle,[1]; [3],1.35 ± 0.16 % ID/g
same,Biodistribution Pancreas,[1]; [3],0.43 ± 0.02 % ID/g
same,Biodistribution Spleen,[1]; [3],1.84 ± 0.14 % ID/g
same,Biodistribution Stomach,[1]; [3],0.48 ± 0.05 % ID/g
same,Biodistribution Blood,[1]; 60 min p.i.,0.11 ± 0.03 % ID/g
same,Biodistribution Femur,[1]; 60 min p.i.,0.10 ± 0.04 % ID/g
same,Biodistribution Heart,[1]; 60 min p.i.,4.84 ± 0.66 % ID/g
same,Biodistribution Intestine,[1]; 60 min p.i.,0.14 ± 0.02 % ID/g
same,Biodistribution Kidneys,[1]; 60 min p.i.,0.60 ± 0.06 % ID/g
same,Biodistribution Lung,[1]; 60 min p.i.,0.12 ± 0.01 % ID/g
same,Biodistribution Muscle,[1]; 60 min p.i.,0.35 ± 0.05 % ID/g
same,Biodistribution Pancreas,[1]; 60 min p.i.,0.12 ± 0.02 % ID/g
same,Biodistribution Spleen,[1]; 60 min p.i.,0.52 ± 0.23 % ID/g
same,Biodistribution Stomach,[1]; 60 min p.i.,0.11 ± 0.01 % ID/g
